Reference: PubChem BioAssay (NCI)
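Briefly, cells in 96-well plates were exposed to five compound concentrations for 48 h, and endpoints were estimated by linear interpolation. GI50 marks 50% less growth. The concentration for full growth arrest is given as TGI.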

How the values were obtained:
Experiment in all cases: NCI anticancer screen, dose series, 48 h
[1] = system: HT29 colon
[2] = system: NCI-H23 lung
[3] = system: EKVX NSCLC
[4] = system: UACC-62 melanoma
[5] = system: SF-268 CNS
[6] = system: UACC-257 melanoma
[7] = system: HCC-2998 colon
[8] = system: TK-10 renal
[9] = system: NCI-H226 lung
[10] = system: HS 578T breast

| SMILES | TGI [1] [µM] | TGI [2] [µM] | TGI [3] [µM] | TGI [4] [µM] | TGI [5] [µM] | TGI [6] [µM] | TGI [7] [µM] | TGI [8] [µM] | TGI [9] [µM] | GI50 [2] [µM] | GI50 [3] [µM] | GI50 [4] [µM] | GI50 [5] [µM] | GI50 [10] [µM] | TGI [10] [µM] | GI50 [6] [µM] | GI50 [7] [µM] | GI50 [8] [µM] | GI50 [1] [µM] | GI50 [9] [µM] |
| --- | --- | --- | --- | --- | --- | --- | --- | --- | --- | --- | --- | --- | --- | --- | --- | --- | --- | --- | --- | --- |
| c1ccc2c(c1)Cc1c(Cc3csc4ccccc34)ccc3cccc-2c13 | > 100 | > 100 | > 100 | > 100 | > 100 | > 100 | > 100 |  |  |  |  |  |  |  |  |  |  |  |  |  |
| COc1cc(/C=C(\NC(=O)c2ccccc2)c2nc3ncncc3[nH]2)cc(OC)c1OC | > 100 | > 100 | > 100 | > 100 | > 100 |  | > 100 | > 100 |  |  |  |  |  |  |  |  |  |  |  |  |
| COc1ccc(/C=C/C(=O)c2c(-c3ccccc3)nn(C)c(=O)c2N2CCOCC2)cc1 | > 100 | > 100 | > 100 | > 100 | > 100 |  |  | > 100 |  |  |  |  |  |  |  |  |  |  |  |  |
| CC1(C)C(=O)C(C)(C)C1=NNC(N)=S | > 100 | > 100 |  | > 100 | > 100 | > 100 | > 100 | > 100 | > 100 |  |  |  |  |  |  |  |  |  |  |  |
| CC1(C)c2ccccc2N2O[C@@H]3C(=O)N(c4ccccc4)C(=O)[C@@H]3C21c1ccccc1 (some centres undefined) | > 100 | > 100 | > 100 | > 100 | > 100 | > 100 | > 100 | > 100 | > 100 |  |  |  |  |  |  |  |  |  |  |  |
| CN(C)Cc1ccc(NC(=O)c2cncc(C#Cc3cnc(N)c4ncccc34)c2)cc1F |  | 34 | 4.01 | 3.53 | 4.24 | 26.7 | 29.3 | 34.9 |  | 13.7 | 2 | 1.83 | 2.25 | 7.85 | 27.7 | 7.31 | 9.83 | 14.5 |  |  |
| CCc1cc2c(O)c(c1)Cc1cc(CC)cc(c1O)Cc1cc(CC)cc(c1O)Cc1cc(CC)cc(c1O)Cc1cc(CC)cc(c1O)Cc1cc(CC)cc(c1O)Cc1cc(CC)cc(c1O)C2 | > 100 | > 100 | > 100 | > 100 | > 100 | > 100 | > 100 | > 100 |  |  |  |  |  |  |  |  |  |  |  |  |
| CNC(=O)c1c(F)cccc1Nc1nc(Nc2cc3c(cc2OC)CCN3C(=O)CN(C)C)nc2[nH]ccc12 | 1.66 | 34 |  | 9.79 | 15.2 |  | 9.2 | 11.8 | 43.6 | 13.3 |  | 4.66 | 5.44 | 17.8 | 46.8 |  | 4.42 | 4.76 | 0.0643 | 16.2 |
| Nc1nc2c(-c3ccc([N+](=O)[O-])cc3)nnn2c2ccccc12 | > 100 | > 100 | > 100 | > 100 | > 100 |  | > 100 | 48.9 | > 100 |  |  |  |  |  |  |  |  |  |  |  |
| N#C/C(=C1\OC(=N)C(c2ccccc2)C1=O)c1ccccc1 (centres undefined) | 57.7 |  | > 73.2 | 52.7 | > 100 | 59.3 | > 100 | 68.5 | > 100 |  |  |  |  |  |  |  |  |  |  |  |
| Cc1nc2sc3c(N)ncnc3c2c(C)c1C | > 25 | > 25 |  | > 25 | > 25 | > 25 | > 25 | > 25 | > 25 | > 25 |  | > 25 | > 25 | 24.9 | > 25 | > 25 | > 25 | > 25 | > 25 | > 25 |
| O=C(N/C(=C\c1ccccc1O)c1nc2ccccc2[nH]1)c1ccccc1 | > 100 | > 100 | > 100 | > 100 | > 100 | > 100 | > 100 | 90.8 |  |  |  |  |  |  |  |  |  |  |  |  |
| C(=C\C(Sc1ccccc1)c1ccccc1)/NNC1=NC(c2ccccc2)C(c2ccccc2)=NN1 (centres undefined) | 35.4 | > 100 | > 100 | > 100 | > 100 | > 100 | > 100 | > 100 | > 100 |  |  |  |  |  |  |  |  |  |  |  |
| CCCCCCCCCCCCN=C(N)c1ccc(N2CCN(c3ccc(C(N)=NCCCCCCCCCCCC)cc3)CC2)cc1 | 25.6 | 15.1 | 20.5 | 21.5 | 21.1 | > 50 | 17 | > 50 | 29.9 | 6.2 | 9.76 | 10.5 | 9.84 |  |  | 26.1 | 8.67 | 13.2 | 5.68 | 12.9 |
| NS(=O)(=O)c1ccc(NC(=O)C2C(=O)C(=O)N(c3ccc(S(N)(=O)=O)cc3)C2=O)cc1 (centres undefined) | > 100 | > 100 | > 100 | > 100 | > 100 | > 100 | > 100 | > 100 | > 100 |  |  |  |  |  |  |  |  |  |  |  |
| COc1ccc(OC)c(/C=C2\CCc3ccccc3C2=O)c1 | 16.7 | 17.3 | 22.7 | 5.39 | 22.2 |  | 9.35 | 30.3 | 18.6 |  |  |  |  |  |  |  |  |  |  |  |
| O=C(CC1C(=O)Nc2ccccc2S1(=O)=O)Nc1ccc(Cl)cc1 (centres undefined) | > 100 | > 100 |  | > 100 | 28.6 | 91.6 | 39.6 | 54.5 | > 100 |  |  |  |  |  |  |  |  |  |  |  |
| O=C(/C=C/c1ccccn1)c1ccc(OCc2nnc(-c3ccc(Cl)cc3)o2)cc1 | 3.99 | 4.58 |  | 3.55 |  | 4.06 | 3.26 | 6.24 | 7.79 | 2.13 |  | 1.83 |  | 3.33 | 10.3 | 1.98 | 1.8 | 2.68 | 1.85 | 2.69 |
| Cc1ccc(/C=C/C(=O)c2sc(-n3nc(-c4ccccc4)cc3-c3ccccc3)nc2C)cc1 | > 100 | > 100 | > 100 | > 100 | > 100 | > 100 | > 100 | > 100 | > 100 |  |  |  |  |  |  |  |  |  |  |  |
| O=C1C=C2CCCC2C(C(=O)O)(C(=O)O)C1 (centres undefined) | > 100 | > 100 | > 100 | > 100 | > 100 | > 100 | > 100 | > 100 |  |  |  |  |  |  |  |  |  |  |  |  |
